Experimental data reported in paper PMC4982760, “Small-molecule inhibitors identify the RAD52-ssDNA interaction as critical for recovery from replication stress and for survival of BRCA2 deficient cells” (eLife, 2016).

Columns and labels:
RAD52-ssDNA interaction = molecular target: T1, RAD52-ssDNA interaction (Homo sapiens, UniProt P43351); test: FRET-based ssDNA binding and wrapping assay (RAD52-Cy3-dT30-Cy5 complex); conditions: 1 nM Cy3-dT30-Cy5, 8 nM RAD52, 25°C; read-out: IC50 (DNA binding), ssDNA
T1 construct: made in house
T1 sequence (P43351 1-418): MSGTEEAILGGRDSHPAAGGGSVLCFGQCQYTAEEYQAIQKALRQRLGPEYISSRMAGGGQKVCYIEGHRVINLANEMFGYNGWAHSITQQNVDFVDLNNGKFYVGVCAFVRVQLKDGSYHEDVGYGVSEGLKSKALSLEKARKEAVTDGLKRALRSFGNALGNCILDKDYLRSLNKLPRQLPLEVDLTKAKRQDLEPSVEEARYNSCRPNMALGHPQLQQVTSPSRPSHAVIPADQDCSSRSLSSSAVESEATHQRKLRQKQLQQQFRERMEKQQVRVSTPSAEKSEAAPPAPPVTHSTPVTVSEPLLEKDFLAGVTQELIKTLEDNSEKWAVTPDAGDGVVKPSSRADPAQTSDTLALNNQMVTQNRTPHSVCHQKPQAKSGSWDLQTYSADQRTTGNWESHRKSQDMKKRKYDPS
Experimental: We titrated increasing amounts of each compound into a cuvette containing preformed stoichiometric RAD52-Cy3-dT30-Cy5 complexes (1 nM Cy3-dT30-Cy5 and 8 nM RAD52). […] At each concentration of the compound, the FRET signal was adjusted for the change in Cy3 and Cy5 fluorescence in the presence of the compound, but in the absence of protein.
FRET-based ssDNA binding, dsDNA binding, and annealing assays were carried out as previously described ([Grimme et al., 2010]; [Grimme and Spies, 2011]) using Cary Eclipse spectrofluorimeter (Varian) at 25°C in buffer containing 30 mM Tris-Acetate pH7.5, 1 mM DTT, and 0.1 mg/mL BSA. Cy3 dye was excited at 530 nm and its emission was monitored at 565 nm. Emission of Cy5 acceptor fluorophore excited through the energy transfer from Cy3 donor is monitored at 660 nm simultaneously with emission of Cy3 dye. Both the excitation and the emission slit widths were set to 10 nm.
All experiments were performed in triplicates, and the data are shown as averages and standard deviations for three independent measurements. To remove possible experimental artifacts associated with chromogenic or fluorogenic compounds, as well as with the compounds that may quench or enhance Cy3 or Cy5 fluorescence, we also performed control titrations whereby we titrated each compound into 1 nM Cy3-dT30-Cy5 in the absence of RAD52. For each compound concentration we subtracted the difference in the FRET signal in the presence and absence of the compound from the respective FRET signal in the presence of RAD52. The FRET signal corrected for the compound fluorescence was calculated using the equation: FRETapp=4.2∗ICy5/4.2∗ICy5+ 1.7∗ICy3
as previously described ([Grimme et al., 2010]; [Grimme and Spies, 2011]) and plotted as a function of compound concentration and fitted to the following inhibition model” FRET([small molecule])=FRET0−FRETmin/1+10^(LogIC50−Log([small molecule])∗HillSlope),
where FRET0 is the initial FRET value of the RAD52-ssDNA complex in the absence of the compound and FRETmin is the FRET value at complete inhibition. FRET values were calculated as an average of three or more independent annealing reactions plotted against the concentration of the compound. Inhibition of the RAD52-dsDNA interaction was assayed in a similar experiments, except the stoichiometric complexes containing 1 nM molecules of Cy3-Oligo28-Cy5 duplex DNA and 10 nM RAD52.

RPA = molecular target: T2, RPA (Homo sapiens, UniProt P15927+P27694+P35244); test: WaterLOGSY NMR binding to RPA; conditions: 20-40 μM compound, 3.3 μM RPA
T2 construct: made in house
T2 sequence (P27694 whole entry): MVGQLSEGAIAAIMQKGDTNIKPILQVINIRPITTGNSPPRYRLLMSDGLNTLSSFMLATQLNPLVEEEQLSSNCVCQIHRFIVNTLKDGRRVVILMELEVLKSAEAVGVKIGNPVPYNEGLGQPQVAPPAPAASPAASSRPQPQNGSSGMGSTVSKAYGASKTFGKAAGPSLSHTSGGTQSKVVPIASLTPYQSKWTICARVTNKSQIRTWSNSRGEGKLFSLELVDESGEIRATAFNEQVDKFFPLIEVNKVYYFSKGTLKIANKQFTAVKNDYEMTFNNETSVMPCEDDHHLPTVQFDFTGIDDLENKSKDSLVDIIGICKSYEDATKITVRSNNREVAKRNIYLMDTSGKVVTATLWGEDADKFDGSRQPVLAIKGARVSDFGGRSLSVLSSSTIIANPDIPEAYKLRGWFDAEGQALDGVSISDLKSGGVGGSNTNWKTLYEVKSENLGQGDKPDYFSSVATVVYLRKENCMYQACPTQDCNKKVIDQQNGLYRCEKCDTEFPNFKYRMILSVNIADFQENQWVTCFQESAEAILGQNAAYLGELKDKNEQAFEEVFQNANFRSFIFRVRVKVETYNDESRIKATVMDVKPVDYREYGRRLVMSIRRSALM
T2 sequence (P15927 whole entry): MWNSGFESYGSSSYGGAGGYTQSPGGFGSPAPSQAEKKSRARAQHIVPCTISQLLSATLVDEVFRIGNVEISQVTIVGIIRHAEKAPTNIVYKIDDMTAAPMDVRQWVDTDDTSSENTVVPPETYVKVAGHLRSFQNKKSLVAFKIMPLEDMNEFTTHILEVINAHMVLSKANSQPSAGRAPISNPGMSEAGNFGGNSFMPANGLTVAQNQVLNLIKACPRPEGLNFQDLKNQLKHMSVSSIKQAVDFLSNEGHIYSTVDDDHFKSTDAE
T2 sequence (P35244 whole entry): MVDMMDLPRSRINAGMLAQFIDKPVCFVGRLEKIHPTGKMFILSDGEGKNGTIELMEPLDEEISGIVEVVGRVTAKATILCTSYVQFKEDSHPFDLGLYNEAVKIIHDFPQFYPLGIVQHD
Source text: (§1) To confirm that the selected compounds bind RAD52, we employed water-ligand observation with gradient spectroscopy (WaterLOGSY), an NMR technique, which is based on transfer of magnetization from bulk water to the protein-bound compound of interest ([Dalvit et al., 2001], [2000]). In WaterLOGSY spectrum, if a compound binds to a protein, the compound will receive negative nuclear Overhauser effects (NOEs) due to the slow tumbling of the protein-compound complex, leading to a positive WaterLOGSY peak. […] Similarly, the binding of ‘6’to RAD52 is evident from the positive WaterLOGSY peaks that are clearly detected for this compound (Figure 3a).
(§2) Compound binding to RAD52 and RPA proteins was analyzed using water-ligand observation with gradient spectroscopy (WaterLOGSY) NMR experiments ([Dalvit et al., 2001], [2000]). The WaterLOGSY spectra of compounds in the presence of RAD52 or RPA were acquired using a water NOE mixing time of 1 s and a T2 relaxation filter of 50 ms just before data acquisition to suppress the broad signals derived from protein. The protein buffer used in the experiments contains 10 mM Tris-d11, 75 mM KCl, 0.25 mM EDTA, pH 7.5, and 10% D20. All NMR data were acquired on a Bruker Avance II 800 MHz NMR spectrometer equipped with a sensitive cryoprobe and recorded at 25°C. The ^1H chemical shifts were referenced to 2,2-dimethyl-2-silapentane-5-sulfonate (DSS). NMR spectra were processed using NMR Pipe ([Delaglio et al., 1995]) and analysed using NMR View ([Johnson and Blevins, 1994]).

RPA-ssDNA interaction = molecular target: T3, RPA-ssDNA interaction (Homo sapiens, UniProt P15927+P27694+P35244); test: FRET titration of the RPA-Cy3-dT30-Cy5 complex; assay type: binding; conditions: range of tested concentrations
T3 construct: made in house
T3 sequence (P27694 whole entry): as the sequence (P27694 whole entry) above
T3 sequence (P15927 whole entry): as the sequence (P15927 whole entry) above
T3 sequence (P35244 whole entry): as the sequence (P35244 whole entry) above
Source text: In the cell, ssDNA is typically found in complex with Replication protein A (RPA), the major eukaryotic ssDNA-binding protein essential for DNA replication, repair and recombination ([Wold, 1997]; [Oakley and Patrick, 2010]; [Chen and Wold, 2014]). The RPA-ssDNA complex is a physiologically relevant substrate for the RAD52-mediated strand annealing. […] RPA binds ssDNA with high affinity and extends the ssDNA to its contour length. In our assays such an extension manifests as a distinct FRET state of ~0.3, which is readily distinguished from a FRET state of ~0.48 of free Cy3-dT30-Cy5 ssDNA, as well as ~0.63 FRET of the stoichiometric ssDNA-RPA-RAD52 complex (see Figure 2—figure supplement 1 and ([Grimme and Spies, 2011]) for details). […] Both, however, inhibited the RAD52 binding to and wrapping of RPA-coated ssDNA with IC50 values identical to those determined without RPA (Figure 2e and Figure 3e).
(§3) In all experiments, the FRET values for each data point were corrected for the effects of the compounds on the respective substrate in the absence of RAD52.

RAD52-dsDNA interaction = molecular target: T4, RAD52-dsDNA interaction (Homo sapiens, UniProt P43351); test: FRET-based RAD52-dsDNA binding assay; conditions: 1 nM dsDNA, 10 nM RAD52
T4 construct: made in house
T4 sequence (P43351 1-418): T1 sequence (P43351 1-418)

RAD52 = molecular target: T5, RAD52 (Homo sapiens, UniProt P43351); test: WaterLOGSY NMR binding to RAD52; conditions: 20-40 μM compound, 3.3 μM RAD52
T5 construct: made in house
T5 sequence (P43351 1-418): T1 sequence (P43351 1-418)
Source text: as §1, §2

[1] = molecular target: T6, RAD52-RPA-Cy3-dT30-Cy5 complex (Homo sapiens, UniProt P43351); test: FRET-based RAD52 binding/wrapping of RPA-coated ssDNA
T6 construct: made in house
T6 sequence (P27694 whole entry partner, one chain of several): as the sequence (P27694 whole entry) above
T6 sequence (P15927 whole entry partner, one chain of several): as the sequence (P15927 whole entry) above
T6 sequence (P35244 whole entry partner, one chain of several): as the sequence (P35244 whole entry) above
Source text: The RPA-ssDNA complex is a physiologically relevant substrate for the RAD52-mediated strand annealing. […] RPA binds ssDNA with high affinity and extends the ssDNA to its contour length.
as §3

**Q.** O=C(O[C@@H]1O[C@@H]2COC(=O)c3cc(O)c(O)c(O)c3-c3c(cc(O)c(O)c3O)C(=O)O[C@H]([C@H]1O)[C@@H]2O)c1cc(O)c(O)c(O)c1 [NP-004255, corilagin] was tested. Which IC50 (RAD52-ssDNA interaction) did it give?
**A.** 1500 ± 200 nM

**Q.** And the “binding to RPA (WaterLOGSY)” value (RPA)?
**A.** also bound RPA

**Q.** And the “effect on the RPA-ssDNA interaction” value (RPA-ssDNA interaction)?
**A.** did not affect the RPA-ssDNA complex

**Q.** What about the “effect on the RAD52-dsDNA interaction” value (RAD52-dsDNA interaction) of the same compound?
**A.** had no effect on the RAD52-dsDNA interaction

**Q.** And the “binding to RAD52 (WaterLOGSY)” value (RAD52)?
**A.** physically interacts with RAD52

**Q.** And the IC50 [1]?
**A.** 500 ± 100 nM
